Data as given in ChEMBL document CHEMBL4417631, “Oral peptide inhibitors of interleukin-23 receptor and their use to treat inflammatory bowel diseases” (2017).

Experiments:
Interleukin-23 receptor [1] = target: T1, Interleukin-23 receptor (Homo sapiens, UniProt Q5VWK5); assay: Inhibition of interleukin-23 receptor in human natural killer cells assessed as reduction in IL23/IL18-induced IFNgamma production incubated for 20 to 24 hrs by ELISA; format: cell-based
T1 sequence (Q5VWK5 whole entry): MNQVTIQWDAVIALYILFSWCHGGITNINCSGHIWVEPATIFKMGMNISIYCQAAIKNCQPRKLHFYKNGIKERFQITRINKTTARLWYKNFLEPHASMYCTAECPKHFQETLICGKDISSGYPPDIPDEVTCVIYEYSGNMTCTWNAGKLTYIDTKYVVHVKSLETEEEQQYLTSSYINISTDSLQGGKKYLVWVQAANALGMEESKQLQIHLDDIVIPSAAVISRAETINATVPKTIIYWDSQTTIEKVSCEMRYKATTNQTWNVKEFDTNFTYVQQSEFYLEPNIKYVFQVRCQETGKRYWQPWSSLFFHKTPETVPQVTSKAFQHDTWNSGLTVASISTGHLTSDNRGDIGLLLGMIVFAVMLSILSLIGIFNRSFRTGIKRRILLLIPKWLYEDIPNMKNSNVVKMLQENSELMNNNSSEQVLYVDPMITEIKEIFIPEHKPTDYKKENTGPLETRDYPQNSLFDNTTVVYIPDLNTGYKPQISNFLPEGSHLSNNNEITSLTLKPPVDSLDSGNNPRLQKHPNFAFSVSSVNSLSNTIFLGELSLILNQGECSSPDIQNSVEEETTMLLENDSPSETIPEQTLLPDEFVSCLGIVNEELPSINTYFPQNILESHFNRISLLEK

Interleukin-23 receptor [2] = target: T1, Interleukin-23 receptor; assay: Inhibition of interleukin-23 receptor in human DB cells assessed as reduction in IL-23-stimulated STAT3 phosphorylation incubated for 30 mins by HTRF assay; format: cell-based
[3] = Half life in simulated gastric fluid at 20 uM by LC-MS/MS analysis; format: ADME
[4] = Inhibition of interleukin-23 binding to rat interleukin-23 receptor incubated for 2 hrs by competitive binding ELISA
[5] = Half life in simulated intestinal fluid at 20 uM by LC-MS/MS analysis; format: ADME
Interleukin-23 receptor [6] = target: T1, Interleukin-23 receptor; assay: Inhibition of interleukin-23 binding to human interleukin-23 receptor incubated for 2 hrs by competitive binding ELISA

IC50 (Interleukin-23 receptor [2])	half-life at 20 µM [3]	IC50 [4]	half-life at 20 µM [5]	IC50 (Interleukin-23 receptor [6])	Compound	IC50 (Interleukin-23 receptor [1])
< 10 nM	3 to 6 h	< 10 nM	2 to 3 h	< 10 nM	CC(=O)NCCCC[C@H](NC(=O)[C@](C)(CC(C)C)NC(=O)[C@H](Cc1ccc2ccccc2c1)NC(=O)[C@H](Cc1ccc(OCCN)cc1)NC(=O)[C@@H](NC(=O)[C@H](CCC(N)=O)NC(=O)[C@H](Cc1c[nH]c2ccccc12)NC(=O)[C@@H](NC(=O)[C@H](CCC(N)=O)NC(=O)[C@@H](NC(C)=O)C(C)(C)S)[C@@H](C)O)C(C)(C)S)C(=O)N[C@@H](CC(N)=O)C(=O)N[C@@H](CC(N)=O)C(N)=O	< 10 nM
< 10 nM	1 to 2 h	< 10 nM	2 to 3 h	< 10 nM	CC(=O)NCCCC[C@H](NC(=O)[C@@](C)(NC(=O)[C@H](Cc1ccc2ccccc2c1)NC(=O)[C@H](Cc1ccc(OCCN)cc1)NC(=O)[C@@H]1CSCC[C@H](NC(C)=O)C(=O)N[C@@H](CCC(N)=O)C(=O)N[C@@H]([C@@H](C)O)C(=O)N[C@@H](Cc2c[nH]c3ccccc23)C(=O)N[C@@H](CCC(N)=O)C(=O)N1)C(C)C)C(=O)N[C@@H](CC(N)=O)C(=O)NCC(N)=O	< 25 nM
< 10 nM	–	25 to 100 nM	–	–	CC(=O)NCCCC[C@H](NC(=O)[C@](C)(CCCCN)NC(=O)[C@H](Cc1ccc2ccccc2c1)NC(=O)[C@H](Cc1ccc(C(N)=O)cc1)NC(=O)[C@@H](NC(=O)[C@H](CCC(N)=O)NC(=O)[C@H](Cc1c[nH]c2ccccc12)NC(=O)[C@@H](NC(=O)[C@H](CCC(N)=O)NC(=O)[C@@H](NC(C)=O)C(C)(C)S)[C@@H](C)O)C(C)(C)S)C(=O)N[C@@H](CC(N)=O)C(=O)N[C@@H](CC(N)=O)C(N)=O	< 10 nM
< 10 nM	–	10 to 25 nM	< 1 h	10 to 25 nM	CC(=O)N[C@H]1CCSC[C@@H](C(=O)N[C@@H](Cc2ccc(O)cc2)C(=O)N[C@@H](Cc2ccc3ccccc3c2)C(=O)N[C@@](C)(CC(C)C)C(=O)N[C@@H](CCC(=O)O)C(=O)N[C@@H](CC(N)=O)C(=O)NCC(N)=O)NC(=O)[C@H](CCC(N)=O)NC(=O)[C@H](Cc2c[nH]c3ccccc23)NC(=O)[C@H]([C@@H](C)O)NC(=O)[C@H](CCC(N)=O)NC1=O	< 25 nM
< 10 nM	1 to 2 h	< 10 nM	< 1 h	–	CC(=O)N[C@H]1CCSC[C@@H](C(=O)N[C@@H](Cc2ccc(OCCN)cc2)C(=O)N[C@@H](Cc2ccc3ccccc3c2)C(=O)NC2(C(=O)N[C@@H](CCC(=O)O)C(=O)N[C@@H](CC(N)=O)C(=O)N[C@@H](CC(N)=O)C(N)=O)CCC2)NC(=O)[C@H](CCC(N)=O)NC(=O)[C@H](Cc2c[nH]c3ccccc23)NC(=O)[C@H]([C@@H](C)O)NC(=O)[C@H](CCC(N)=O)NC1=O	< 25 nM
< 10 nM	3 to 6 h	10 to 25 nM	> 6 h	–	CC(=O)NCCCC[C@H](NC(=O)[C@@](C)(NC(=O)[C@H](Cc1ccc2ccccc2c1)NC(=O)[C@H](Cc1ccc(C(N)=O)cc1)NC(=O)[C@@H](NC(=O)[C@H](CCC(N)=O)NC(=O)[C@H](Cc1c[nH]c2ccccc12)NC(=O)[C@@H](NC(=O)[C@H](CCC(N)=O)NC(=O)[C@@H](NC(C)=O)C(C)(C)S)[C@@H](C)O)C(C)(C)S)C(C)C)C(=O)N[C@@H](CC(N)=O)C(=O)N[C@@H](CC(N)=O)C(N)=O	10 to 25 nM
< 10 nM	–	–	–	–	COc1ccc(C[C@H](NC(=O)[C@@H](NC(=O)[C@H](CCC(N)=O)NC(=O)[C@H](Cc2c[nH]c3ccccc23)NC(=O)[C@@H](NC(=O)[C@H](CCC(N)=O)NC(=O)[C@@H](NC(C)=O)C(C)(C)S)[C@@H](C)O)C(C)(C)S)C(=O)N[C@@H](Cc2ccc3ccccc3c2)C(=O)N[C@@](C)(CCCCN)C(=O)N[C@@H](CCCCNC(C)=O)C(=O)N[C@@H](CC(N)=O)C(=O)N[C@@H](CC(N)=O)C(N)=O)cc1	< 10 nM
< 10 nM	–	10 to 25 nM	–	< 10 nM	COc1ccc(C[C@H](NC(=O)[C@@H]2CSCC[C@H](NC(C)=O)C(=O)N[C@@H](CCC(N)=O)C(=O)N[C@@H]([C@@H](C)O)C(=O)N[C@@H](Cc3c[nH]c4ccccc34)C(=O)N[C@@H](CCC(N)=O)C(=O)N2)C(=O)N[C@@H](Cc2ccc3ccccc3c2)C(=O)N[C@@](C)(CCCCNC(=O)COCC(=O)NCCCC[C@](C)(NC(=O)[C@H](Cc2ccc3ccccc3c2)NC(=O)[C@H](Cc2ccc(OC)cc2)NC(=O)[C@@H]2CSCC[C@H](NC(C)=O)C(=O)N[C@@H](CCC(N)=O)C(=O)N[C@@H]([C@@H](C)O)C(=O)N[C@@H](Cc3c[nH]c4ccccc34)C(=O)N[C@@H](CCC(N)=O)C(=O)N2)C(=O)N[C@@H](CCC(=O)O)C(=O)N[C@@H](CC(N)=O)C(=O)NCC(N)=O)C(=O)N[C@@H](CCC(=O)O)C(=O)N[C@@H](CC(N)=O)C(=O)NCC(N)=O)cc1	< 25 nM
< 10 nM	> 6 h	10 to 25 nM	> 6 h	–	CC(=O)NCCCC[C@H](NC(=O)C(C)(C)NC(=O)[C@H](Cc1ccc2ccccc2c1)NC(=O)[C@H](Cc1ccc(OCCN)cc1)NC(=O)[C@@H](NC(=O)[C@H](CCC(N)=O)NC(=O)[C@H](Cc1c[nH]c2ccccc12)NC(=O)[C@@H](NC(=O)[C@H](CC(N)=O)NC(=O)[C@@H](NC(C)=O)C(C)(C)S)[C@@H](C)O)C(C)(C)S)C(=O)N[C@@H](CC(N)=O)C(=O)NCCC(N)=O	< 10 nM
< 10 nM	–	25 to 100 nM	–	10 to 25 nM	COc1ccc(C[C@H](NC(=O)[C@H](Cc2ccc(OCCN)cc2)NC(=O)[C@@H]2CSCC[C@H](NC(C)=O)C(=O)N[C@@H](CCC(N)=O)C(=O)N[C@@H]([C@@H](C)O)C(=O)N[C@@H](Cc3c[nH]c4ccccc34)C(=O)N[C@@H](CCC(N)=O)C(=O)N2)C(=O)N[C@@](C)(CCCCN)C(=O)N[C@@H](CCCCNC(C)=O)C(=O)N[C@@H](CC(N)=O)C(=O)NCC(N)=O)cc1OC	< 25 nM
< 10 nM	> 6 h	< 10 nM	> 6 h	< 10 nM	CC(=O)N[C@H]1CCSC[C@@H](C(=O)N[C@@H](Cc2ccc(OCCN)cc2)C(=O)N[C@@H](Cc2ccc3ccccc3c2)C(=O)N[C@@](C)(CCCCN)C(=O)N[C@@H](CCC(=O)O)C(=O)N[C@@H](CC(N)=O)C(=O)NCC(N)=O)NC(=O)[C@H](CCC(N)=O)NC(=O)[C@H](Cc2c[nH]c3ccccc23)NC(=O)[C@H]([C@@H](C)O)NC(=O)[C@H](CCC(N)=O)NC1=O	–
–	–	–	–	–	COc1ccc(C[C@H](NC(=O)[C@@H](NC(=O)[C@H](CCC(N)=O)NC(=O)[C@H](Cc2c[nH]c3ccccc23)NC(=O)[C@@H](NC(=O)[C@H](CC(N)=O)NC(=O)[C@@H](NC(=O)[C@@H](Cc2ccccc2)NC(C)=O)C(C)(C)S)[C@@H](C)O)C(C)(C)S)C(=O)N[C@@H](Cc2ccc3ccccc3c2)C(=O)NC2(C(=O)N[C@@H](CCCNC(N)=O)C(=O)N[C@@H](CC(N)=O)C(=O)N[C@@H](CC(N)=O)C(N)=O)CCCCC2)cc1	< 10 nM
< 10 nM	< 1 h	25 to 100 nM	1 to 3 h	10 to 25 nM	CC(=O)NCCCC[C@H](NC(=O)[C@](C)(CCCCN)NC(=O)[C@H](Cc1ccc2ccccc2c1)NC(=O)[C@H](Cc1ccc(C(N)=O)cc1)NC(=O)[C@@H]1CSCC[C@H](NC(C)=O)C(=O)N[C@@H](CCC(N)=O)C(=O)N[C@@H]([C@@H](C)O)C(=O)N[C@@H](Cc2c[nH]c3ccccc23)C(=O)N[C@@H](CCC(N)=O)C(=O)N1)C(=O)N[C@@H](CC(N)=O)C(=O)NCC(N)=O	–
–	3 to 6 h	–	1 to 2 h	–	CC(=O)NCCCC[C@H](NC(=O)C(C)(C)NC(=O)[C@H](Cc1ccc2ccccc2c1)NC(=O)[C@H](Cc1ccc(C(N)=O)cc1)NC(=O)[C@@H](NC(=O)[C@H](CCC(N)=O)NC(=O)[C@H](Cc1c[nH]c2ccccc12)NC(=O)[C@@H](NC(=O)[C@H](CC(N)=O)NC(=O)[C@@H](NC(C)=O)C(C)(C)S)[C@@H](C)O)C(C)(C)S)C(=O)N[C@@H](CC(N)=O)C(=O)N[C@@H](CC(N)=O)C(N)=O	< 10 nM
25 to 100 nM	2 to 3 h	100 to 1000 nM	3 to 6 h	25 to 100 nM	COc1ccc(C[C@H](NC(=O)[C@H]2NC(=O)[C@H](CCC(N)=O)NC(=O)[C@H](Cc3c[nH]c4ccccc34)NC(=O)[C@H]([C@@H](C)O)NC(=O)[C@H](CCC(N)=O)NC(=O)[C@@H](NC(C)=O)CCSC2(C)C)C(=O)N[C@@H](Cc2ccc3ccccc3c2)C(=O)N[C@@](C)(CCCCN)C(=O)N[C@@H](CCCCNC(C)=O)C(=O)N[C@@H](CC(N)=O)C(=O)NCC(N)=O)cc1	–
–	–	–	–	–	COc1ccc(C[C@H](NC(=O)[C@@H](NC(=O)[C@H](CCC(N)=O)NC(=O)[C@H](Cc2c[nH]c3ccccc23)NC(=O)[C@@H](NC(=O)[C@H](CC(N)=O)NC(=O)[C@@H](NC(=O)[C@@H](Cc2ccccc2)NC(C)=O)C(C)(C)S)[C@@H](C)O)C(C)(C)S)C(=O)N[C@@H](Cc2ccc3ccccc3c2)C(=O)NC2(C(=O)N[C@@H](CCCNC(N)=O)C(=O)N[C@@H](CC(N)=O)C(=O)N[C@@H](CC(N)=O)C(N)=O)CCOCC2)cc1	< 10 nM
